The text below walks through data of US10590392B2, “Generation of airway epithelial organoids from human pluripotent stem cells” (TRUSTEES OF BOSTON UNIVERSITY, priority 2017, dated 2020).

Entries after “also recorded” stand apart in the source; their conditions may differ.

Series [1] relates to 7XTCF-mCherry Wnt reporter in FG293 cells. Put plainly: Lentiviral 7XTCF-mCherry Wnt reporter dose-response in FG293 cells. As to conditions: 3 μM CHIR.
For series [2], the system named is iPSC-derived anterior foregut endoderm cells. Put plainly: Lung specification from anterior foregut endoderm with or without CHIR (NKX2-1GFP flow cytometry, 7XTCF-mCherry reporter). It is filed as cell-based, human.
Series [3] concerns iPSC-derived NKX2-1+ lung progenitors. Put plainly: Immunofluorescence and intracellular flow cytometry for NKX2-1, SOX2, SOX9, P63 coexpression at day 19. It is filed as cell-based, human. As for the experimental part:
Cells were harvested for intracellular flow cytometry and fixed for 10-20 minutes at 37° C. in fresh 1.6% paraformeldehyde. Cells were permeabilized with Cell Permeabilization Buffer (eBioscience, San Diego, Calif.) containing 4% normal donkey serum (Sigma) in PBS and stained with primary antibody for NKX2-1 (Abcam # ab76013, rabbit EP1584Y, 1:100) or a conjugated antibody for SOX2 (BD #561506, PerCP-Cy5.5 conjugated, mouse O30-678, 1:100). Anti-NKX2-1 antibody was detected by secondary antibody stainings with either Cy3, Alexa Fluor 488, or Alexa Fluor 647 fluorophore-conjugated secondary antibodies (AffiniPure Donkey Anti-Rabbit IgG (H+L); 1:500; Jackson ImmunoResearch, West Grove, Pa.). Stained cells were analyzed on a FacsCalibur instrument (BD Biosciences, San Jose, Calif.) and data was analyzed with FlowJo software (Ashland, Oreg.).
Cells for immunofluorescence microscopy were cultured on glass coverslips (ThermoFisher). Cultured cells were fixed with fresh 4% paraformeldehyde and stained as described previously(Kurmann et al., 2015). Briefly, cells were permeabilized with 0.3% Triton-X (Sigma) for 10 minutes at room temperature then blocked with 4% normal donkey serum (Sigma) for 30 minutes at room temperature. Cells were incubated with primary antibodies (detailed in Key Resources Table 3) overnight at 4° C., washed, and incubated with secondary antibodies for 30-60 minutes at room temperature. All secondary antibodies were conjugated to Alexa Fluor 488, Cy3, or Alexa Fluor 647 (Jackson Immunoresearch, 1:500). After antibody staining, nuclei were stained with Hoescht dye (ThermoFisher, 1:500). Coverslips with cells were mounted on glass slides using Prolong Diamond Anti-Fade Mounting Reagent (ThermoFisher) and imaged on a Nikon (Tokyo, Japan) deconvolution microscope.
Quantification of nuclear colocalization was performed using Nikon NIS Elements software using the Object Count function. 3-5 areas from each slide were analyzed for each replicate. The total image area where NKX2-1 and SOX2 or P63 overlapped was divided by the area containing only the NKX2-1 stain.
A general note: In flow cytometry, cells or beads pass a laser one at a time.

Series [4] deals with iPSC-derived NKX2-1GFP+ lung progenitors. Description: Post-specification patterning of hPSC-derived lung progenitors, treatment day 15 to 19, RT-qPCR/flow cytometry of NKX2-1GFP+ cells. It is filed as cell-based, human. As for the experimental part: Measurement of mRNA expression by reverse transcriptase quantitative real time PCR (RT-qPCR) was performed as previously described(Longmire et al., 2012). Briefly, RNA was extracted from cells using a QIAzol Lysis Reagent (Qiagen, Venlo, Netherlands) and 150 ng of RNA was transcribed to cDNA using reverse transcription reagents (Applied Biosystems). Real time PCR (qPCR) was performed using TaqMan Fast Universal PCR Master Mix (ThermoFisher) and TaqMan (Applied Biosystems) reagents. The cDNA was diluted 1:3 and 2 μL of cDNA was added to each 25 μL (for Applied Biosystems StepOne 96-well System) or 12.5 μL (for Applied Biosystems QuantStudio7 384-well system) qPCR reaction. Each sample was run in technical triplicates and cycle (Ct) values were averaged between triplicates for analysis. Relative gene expression, normalized to 18S control, was calculated as fold change in 18S-normalized gene expression, compared to baseline, using the 2^(−ΔΔCT) method. Baseline, defined as fold change=1, was set to undifferentiated iPSC levels, or if undetected, a cycle number of 40 was assigned to allow fold change calculations. Adult lung control RNA was extracted from a normal lung biopsy sample. Primers were all TaqMan probes purchased from Applied Biosystems. Specifics of primers used are detailed in Table 1.
Day 14-16 cells from the lung progenitor directed differentiation protocol were harvested with 0.05% Trypsin-EDTA (Invitrogen) and replated in clumps in either Matrigel-coated tissue culture dishes in two-dimensional culture or in three-dimensional Matrigel drops. Matrigel drops were formed by resuspending cell clumps directly in undiluted Matrigel matrix, pipetting 50-100 μL into each well, and allowing the Matrigel/cell mixture to gel for 30 minutes at 37° C. Cell drops were then covered completely with growth medium.
Post-specification culture conditions were determined by the addition of growth factors to cSFDM. For patterning experiments, growth factors were added to a base media containing 10 ng/mL rhFGF10 (“Base”) and additional factors detailed in the results text. For concentrations of growth factors required for each experiment, see Table 2. Cells were additionally cultured with 10 μM Y-27632 (Tocris) for 24 hours after replating. Doses of growth factors were determined based on previously published directed differentiation protocols (Huang et al., 2013; Kurmann et al., 2015; Longmire et al., 2012) as well as dose-response experiments using 7XTCF lentiviral reporters for CHIR99021 (Figure S2d-e). […]
To test whether the inventors could efficiently induce a proximal vs distal program in iPSC-derived lung progenitors, the inventors modulated key developmental pathways beginning on day 15 of differentiation in our model system (FIG. 1C-1E), and monitored changes in SOX2 and SOX9 expression that are due to coordinated proximal vs distal patterning changes in purified NKX2-1^GFP+ cells within 4 days of treatment. At day 15, post-lung specification, the inventors cultured cells in a base media of “low dose” (10 ng/mL) FGF10 to promote proliferation without strongly inducing patterning(Volckaert et al., 2013). From this base media, the inventors stimulated the following pathways: Wnt signaling via the potent GSK3β inhibitor CHIR99021, hereafter CHIR; FGF signaling using FGF2 or high dose (100 ng/mL) FGF10; BMP signaling using BMP4; and TGFβ signaling using TGFβ
A general note: Quantitative PCR measures a nucleic acid by following its amplification.

The mark [5] stands for this setting: NKX2-1GFP+ sorted cells on day 19 after treatment day 15-19, vs base media (10 ng/mL FGF10), RT-qPCR.
[6] abbreviates: in response to CHIR withdrawal day 15-19, within 4 days.

`Cc1c[nH]c(-c2cnc(NCCNc3ccc(C#N)cn3)nc2-c2ccc(Cl)cc2Cl)n1` [CHIR, CHIR99021]: in series [1], the “Wnt activation (lentiviral TCF reporter)” value is “induce Wnt activation” and the cytotoxicity result is “without significant cytotoxicity”. Besides, the “rescue of NKX2-1GFP expression by later addition” value in series [2] (cells differentiated without CHIR to day 15) is “could not be rescued”. In addition, in series [2] (presence of CHIR vs without, as early as 48 h after initiation of specification, maintained until at least day 15), the “NKX2-1GFP expression during lung specification” value is given as “significantly higher levels”. For the same compound, in series [2] (specification media with CHIR vs vehicle alone, normalized to Ef1aL-mCherry), the “7TC (7XTCF-mCherry) reporter expression” value is listed as “rapid upregulation”. In series [3] (CHIR withdrawal day 15-19 (FGF10 alone) vs CHIR, immunofluorescence), the “cells co-expressing NKX2-1 and P63” value is “increased frequencies; also recorded: significantly increased coexpression”. Further, the “percentage of cells coexpressing NKX2-1 and SOX2” value in series [3] (CHIR withdrawal day 15-19 vs CHIR) is recorded as “significantly higher percentage; also recorded: small but significant increase”. Moreover, the “NKX2-1+ population expressing SOX2” value in series [3] (CHIR-treated day 15-19, intracellular flow cytometry, without CHIR 68.0±4.1%) came to 54.9±5.5%. The “SOX2+ cells among NKX2-1+ cells” value in series [3] (day 19, with CHIR (also without CHIR)) is reported as greater than 50%. The “NKX2-1+ cells that were SOX9+” value in series [3] (sustained CHIR day 15-19, triple immunostaining, 4 days after withdrawal of CHIR <40%) is given as greater than 90%. In addition, the “expression of Wnt signaling responsive genes LEF1, NKD1, AXIN2” value in series [4] (CHIR withdrawal day 15-19, day 19) was “reduced expression”. In addition, the “lentiviral TCF-driven reporter (7XTCF-mCherry) expression” value in series [4] (CHIR withdrawal day 15-19, day 19, NKX2-1+ cells) is “reduced”. For the same compound, in series [4] (setting [5]), the “SCGB3A2 mRNA expression” value is “decreased expression”, the “SOX2 mRNA expression” value is “significantly decreased” and the “SOX9 mRNA expression” value is listed as “increased”. In series [4] (setting [6]), the “expression of distal markers SOX9 and ETV5” value is recorded as “downregulated; also recorded: decreased expression”; the “expression of proximal airway markers (SCGB3A2, TP63/P63, MUC5AC)” value is “upregulated; also recorded: significantly increased expression”. Besides, in series [4] (withdrawal of CHIR from day 15 to 19, flow cytometry), the “percentage of NKX2-1GFP+ cells by day 19” value is listed as “significantly decreased percentage”.
